Patent publication US6479435B1, “Diaryl ethers and processes for their preparation and herbicidal and desiccant compositions containing them” (ISK Americas Incorporated, priority 1997, dated 2002)

Columns and labels:
Format in all cases: in vivo
[1] = test system: common ragweed (Ambrosia artemisiifolia L., AMBEL); experiment: Post-emerge greenhouse herbicide test, phytotoxicity rating; details: 14 days after application
Summary of the method: (§1)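 Compounds in acetone with 0.25% v/v non-ionic surfactant were track-sprayed at 187 l/ha over plants at the 2-3 leaf stage, at 63 to 1000 g ai/ha. Pots were bottom-watered. Injury was scored visually 14 days later on a 0-100 scale, where 0 is no damage and 100 is complete plant death.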

[2] = test system: ivyleaf morningglory (Ipomoea hederacea, IPOHE); experiment: as above; details: 14 days after application
Summary of the method: as §1

[3] = test system: Johnsongrass (Sorghum halepense, SORHA); experiment: as above; details: 14 days after application
Summary of the method: as §1

[4] = test system: large crabgrass (Digitaria sanguinalis, DIGSA); experiment: as above; details: 14 days after application
Summary of the method: as §1

[5] = test system: redroot pigweed (Amaranthus retroflexus, AMARE); experiment: as above; details: 14 days after application
Summary of the method: as §1

[6] = test system: lambsquarters (Chenopodium album, CHEAL); experiment: as above; details: 14 days after application
Summary of the method: as §1

[7] = test system: barnyardgrass (Echinochloa crusgalli, ECHCG); experiment: as above; details: 14 days after application
Summary of the method: as §1

[8] = test system: sicklepod (Cassia obtusifolia, CASOB); experiment: as above; details: 14 days after application
Summary of the method: as §1

[9] = test system: green foxtail (Setaria viridis, SETVI); experiment: as above; details: 14 days after application
Summary of the method: as §1

[10] = test system: velvetleaf (Abutilon theophrasti, ABUTH); experiment: as above; details: 14 days after application
Summary of the method: as §1

[11] = test system: common ragweed (Ambrosia artemisiifolia L., AMBEL); experiment: Pre-emerge greenhouse herbicide test, phytotoxicity rating; details: 14 days after application, rating scale 0-100
Summary of the method: (§2)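 Seeds sown in sandy loam mix one day before track-sprayer application of compounds in acetone at 125–1000 g ai/ha (187 l/ha), then surface-watered to incorporate and bottom-watered. Visual rating 14 days after application on a 0–100 scale (0 = no damage, 100 = all plants dead).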

[12] = test system: ivyleaf morningglory (Ipomoea hederacea, IPOHE); experiment: as above; details: 14 days after application, rating scale 0-100
Summary of the method: as §2

[13] = test system: Johnsongrass (Sorghum halepense, SORHA); experiment: as above; details: 14 days after application, rating scale 0-100
Summary of the method: as §2

[14] = test system: large crabgrass (Digitaria sanguinalis, DIGSA); experiment: as above; details: 14 days after application, rating scale 0-100
Summary of the method: as §2

[15] = test system: redroot pigweed (Amaranthus retroflexus, AMARE); experiment: as above; details: 14 days after application, rating scale 0-100
Summary of the method: as §2

[16] = test system: lambsquarters (Chenopodium album, CHEAL); experiment: as above; details: 14 days after application, rating scale 0-100
Summary of the method: as §2

[17] = test system: barnyardgrass (Echinochloa crusgalli, ECHCG); experiment: as above; details: 14 days after application, rating scale 0-100
Summary of the method: as §2

[18] = test system: sicklepod (Cassia obtusifolia, CASOB); experiment: as above; details: 14 days after application, rating scale 0-100
Summary of the method: as §2

[19] = test system: green foxtail (Setaria viridis, SETVI); experiment: as above; details: 14 days after application, rating scale 0-100
Summary of the method: as §2

[20] = test system: velvetleaf (Abutilon theophrasti, ABUTH); experiment: as above; details: 14 days after application, rating scale 0-100
Summary of the method: as §2

Row | Compound | AMBEL phytotoxicity rating (0-100) ([1]; 63 g al/ha) | AMBEL phytotoxicity rating (0-100) ([1]; 500 g al/ha) | IPOHE phytotoxicity rating (0-100) ([2]; 63 g al/ha) | IPOHE phytotoxicity rating (0-100) ([2]; 500 g al/ha) | SORHA phytotoxicity rating (0-100) ([3]; 500 g al/ha) | DIGSA phytotoxicity rating (0-100) ([4]; 63 g al/ha) | DIGSA phytotoxicity rating (0-100) ([4]; 500 g al/ha) | AMARE phytotoxicity rating (0-100) ([5]; 63 g al/ha) | AMARE phytotoxicity rating (0-100) ([5]; 500 g al/ha) | CHEAL phytotoxicity rating (0-100) ([6]; 63 g al/ha) | CHEAL phytotoxicity rating (0-100) ([6]; 500 g al/ha) | ECHCG phytotoxicity rating (0-100) ([7]; 63 g al/ha) | ECHCG phytotoxicity rating (0-100) ([7]; 500 g al/ha) | CASOB phytotoxicity rating (0-100) ([8]; 63 g al/ha) | CASOB phytotoxicity rating (0-100) ([8]; 500 g al/ha) | SETVI phytotoxicity rating (0-100) ([9]; 63 g al/ha) | SETVI phytotoxicity rating (0-100) ([9]; 500 g al/ha) | ABUTH phytotoxicity rating (0-100) ([10]; 63 g al/ha) | ABUTH phytotoxicity rating (0-100) ([10]; 500 g al/ha) | phytotoxicity rating AMBEL ([11]; 125 g ai/ha) | further results
1 | O=c1sc(=Nc2cc(Oc3ncccc3C(F)(F)F)c(Cl)cc2F)n2n1CCCC2 [Compound 7-1, 9-[4-chloro-2-fluoro-5-(3-trifluoromethyl-2-pyridyloxy)phenylimino]-8-thia-1,6-diazabicyclo[4,3,0]nonane-7-one] | 95 | 100 | 100 | 100 | 30 | 30 | 60 | 100 | 100 | 100 | 100 | 0 | 20 | 70 | 20 | 20 | 60 | 90 | 100 | 80 | phytotoxicity rating AMBEL ([11]; 500 g ai/ha): 90; phytotoxicity rating IPOHE ([12]; 125 g ai/ha): 0; phytotoxicity rating IPOHE ([12]; 500 g ai/ha): 0; phytotoxicity rating SORHA ([13]; 125 g ai/ha): 0; phytotoxicity rating SORHA ([13]; 500 g ai/ha): 60; phytotoxicity rating DIGSA ([14]; 125 g ai/ha): 60; phytotoxicity rating DIGSA ([14]; 500 g ai/ha): 90; phytotoxicity rating AMARE ([15]; 125 g ai/ha): 100; phytotoxicity rating AMARE ([15]; 500 g ai/ha): 100; phytotoxicity rating CHEAL ([16]; 125 g ai/ha): 100; phytotoxicity rating CHEAL ([16]; 500 g ai/ha): 100; phytotoxicity rating ECHCG ([17]; 125 g ai/ha): 0; phytotoxicity rating ECHCG ([17]; 500 g ai/ha): 0; phytotoxicity rating CASOB ([18]; 125 g ai/ha): 50; phytotoxicity rating CASOB ([18]; 500 g ai/ha): 10; phytotoxicity rating SETVI ([19]; 125 g ai/ha): 90; phytotoxicity rating SETVI ([19]; 500 g ai/ha): 100; phytotoxicity rating ABUTH ([20]; 125 g ai/ha): 90; phytotoxicity rating ABUTH ([20]; 500 g ai/ha): 100
2 | COc1nc(OC)nc(Oc2cc(-c3nc(C)n(C(F)F)c3Cl)c(F)cc2Cl)n1 [Compound 2-4, 5-chloro-4-(4-chloro-2-fluoro-5-(4,6-dimethoxy-2-triazinyloxy)phenyl)-1-difluoromethyl-2-methylimidazole] | 0 | 0 | 0 | 75 | 50 | 0 | 10 | 0 | 90 | 0 | 70 | 0 | 0 | 0 | 0 | 0 | 50 | 0 | 80 | 10 | SORHA phytotoxicity rating (0-100) ([3]; 63 g al/ha): 0; phytotoxicity rating AMBEL ([11]; 500 g ai/ha): 0; phytotoxicity rating IPOHE ([12]; 125 g ai/ha): 10; phytotoxicity rating IPOHE ([12]; 500 g ai/ha): 0; phytotoxicity rating SORHA ([13]; 125 g ai/ha): 0; phytotoxicity rating SORHA ([13]; 500 g ai/ha): 40; phytotoxicity rating DIGSA ([14]; 125 g ai/ha): 0; phytotoxicity rating DIGSA ([14]; 500 g ai/ha): 50; phytotoxicity rating AMARE ([15]; 125 g ai/ha): 70; phytotoxicity rating AMARE ([15]; 500 g ai/ha): 100; phytotoxicity rating CHEAL ([16]; 125 g ai/ha): 70; phytotoxicity rating CHEAL ([16]; 500 g ai/ha): 100; phytotoxicity rating ECHCG ([17]; 125 g ai/ha): 0; phytotoxicity rating ECHCG ([17]; 500 g ai/ha): 0; phytotoxicity rating CASOB ([18]; 125 g ai/ha): 0; phytotoxicity rating CASOB ([18]; 500 g ai/ha): 10; phytotoxicity rating SETVI ([19]; 125 g ai/ha): 20; phytotoxicity rating SETVI ([19]; 500 g ai/ha): 95; phytotoxicity rating ABUTH ([20]; 125 g ai/ha): 10; phytotoxicity rating ABUTH ([20]; 500 g ai/ha): 70
3 | COc1nc(OC)nc(Oc2cc(-c3nn(C)c(C(F)(F)F)c3Cl)c(F)cc2Cl)n1 [Compound 1-8, 4-chloro-3-(4-chloro-2-fluoro-5-(4,6-dimethoxy-2-triazinyloxy)phenyl)-1-methyl-5-trifluoromethyl-1H-pyrazole] | 0 | 10 | 10 | 80 | 10 | 0 | 20 | 20 | 100 | 0 | 95 | 0 | 0 | 0 | 10 | 50 | 20 | 0 | 35 | 0 | SORHA phytotoxicity rating (0-100) ([3]; 63 g al/ha): 0; phytotoxicity rating AMBEL ([11]; 500 g ai/ha): 10; phytotoxicity rating IPOHE ([12]; 125 g ai/ha): 0; phytotoxicity rating IPOHE ([12]; 500 g ai/ha): 0; phytotoxicity rating SORHA ([13]; 125 g ai/ha): 0; phytotoxicity rating SORHA ([13]; 500 g ai/ha): 35; phytotoxicity rating DIGSA ([14]; 125 g ai/ha): 20; phytotoxicity rating DIGSA ([14]; 500 g ai/ha): 90; phytotoxicity rating AMARE ([15]; 125 g ai/ha): 70; phytotoxicity rating AMARE ([15]; 500 g ai/ha): 100; phytotoxicity rating CHEAL ([16]; 125 g ai/ha): 0; phytotoxicity rating CHEAL ([16]; 500 g ai/ha): 100; phytotoxicity rating ECHCG ([17]; 125 g ai/ha): 0; phytotoxicity rating ECHCG ([17]; 500 g ai/ha): 0; phytotoxicity rating CASOB ([18]; 125 g ai/ha): 0; phytotoxicity rating CASOB ([18]; 500 g ai/ha): 0; phytotoxicity rating SETVI ([19]; 125 g ai/ha): 50; phytotoxicity rating SETVI ([19]; 500 g ai/ha): 100; phytotoxicity rating ABUTH ([20]; 125 g ai/ha): 0; phytotoxicity rating ABUTH ([20]; 500 g ai/ha): 20
